For eight compounds, EC50 results are on record in patent US9587005B2 (priority 2010, dated 2017).

What all share (assay type): cell-based
One assay concerns the target T1, GIP receptor (Homo sapiens, UniProt P48546).
T1 sequence (P48546 22-466): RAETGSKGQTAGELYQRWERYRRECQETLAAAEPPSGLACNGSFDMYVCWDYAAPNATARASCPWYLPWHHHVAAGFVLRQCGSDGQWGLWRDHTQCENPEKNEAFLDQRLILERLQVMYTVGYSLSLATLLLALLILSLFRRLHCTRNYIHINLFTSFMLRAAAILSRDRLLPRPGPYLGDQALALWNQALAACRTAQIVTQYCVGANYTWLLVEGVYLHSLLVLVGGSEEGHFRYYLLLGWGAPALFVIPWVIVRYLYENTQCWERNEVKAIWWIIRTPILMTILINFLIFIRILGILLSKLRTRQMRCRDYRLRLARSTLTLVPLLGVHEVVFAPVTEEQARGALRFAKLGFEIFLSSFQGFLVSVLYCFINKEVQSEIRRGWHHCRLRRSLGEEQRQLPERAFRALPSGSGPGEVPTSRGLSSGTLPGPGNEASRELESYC
Put plainly: cAMP induction, firefly luciferase reporter assay in HEK293 cells co-transfected with GIP receptor. As to conditions: EC50 (nM) at GIP Receptor.

In the next assay the target is T2, glucagon receptor (Homo sapiens, UniProt P47871).
T2 construct: expressed in transfected cells; host or cells: HEK293
T2 sequence (P47871 26-477): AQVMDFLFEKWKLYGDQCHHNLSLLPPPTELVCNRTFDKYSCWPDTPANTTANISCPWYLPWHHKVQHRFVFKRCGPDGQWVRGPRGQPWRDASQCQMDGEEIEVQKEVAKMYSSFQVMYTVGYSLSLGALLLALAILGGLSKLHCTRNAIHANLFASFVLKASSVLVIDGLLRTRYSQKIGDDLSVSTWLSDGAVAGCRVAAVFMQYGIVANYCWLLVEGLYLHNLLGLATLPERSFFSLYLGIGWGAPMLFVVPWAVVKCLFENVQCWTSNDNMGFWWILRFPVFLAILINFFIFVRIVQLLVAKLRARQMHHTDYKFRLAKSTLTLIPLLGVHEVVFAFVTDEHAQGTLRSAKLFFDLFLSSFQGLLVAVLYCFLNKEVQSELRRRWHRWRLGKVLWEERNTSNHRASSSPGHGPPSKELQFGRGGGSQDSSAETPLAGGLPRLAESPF
Put plainly: cAMP induction, firefly luciferase reporter assay in HEK293 cells co-transfected with glucagon receptor. The source says: (§1) This example describes an exemplary method of testing the biological activity of the peptides of the present disclosures, which method involves assaying cAMP synthesis.

A further assay has as its target T3, GLP-1 receptor (Homo sapiens, UniProt P43220).
T3 construct: expressed in transfected cells; host or cells: HEK293
Put plainly: cAMP induction, firefly luciferase reporter assay in HEK293 cells co-transfected with GLP-1 receptor.
Excerpt: as §1

[1] abbreviates: Table 4, Example 9, composite of multiple different activity assays.
Where [2] appears, read: EC50 (nM) at Glucagon Receptor, Table 4, Example 9, composite of multiple different activity assays.
The mark [3] stands for this setting: EC50 (nM) at GLP-1 Receptor, Table 4, Example 9, composite of multiple different activity assays.

Like-named read-outs stand apart in the source and are kept apart here. *1 amine or outer side, *2 acyl side, *3 side chain or, on linkers, in order; H or OH if unused. Where a SMILES comes first, the peptide text is derived from it. Bridges are numbered along the chain shown (N, C = ends). Where no end group is shown, it is not given here. Side-chain parts run from the residue outwards. [ ]: non-standard residue; d: D form. The star is where a group is joined. γGlu = O=C(O)[C@H](CCC(=O)[*:2])N[*:1]; Palmitoyl = CCCCCCCCCCCCCCCC(=O)*; Aib = CC(C)(N)C(=O)O

T3 sequence (P43220 24-463): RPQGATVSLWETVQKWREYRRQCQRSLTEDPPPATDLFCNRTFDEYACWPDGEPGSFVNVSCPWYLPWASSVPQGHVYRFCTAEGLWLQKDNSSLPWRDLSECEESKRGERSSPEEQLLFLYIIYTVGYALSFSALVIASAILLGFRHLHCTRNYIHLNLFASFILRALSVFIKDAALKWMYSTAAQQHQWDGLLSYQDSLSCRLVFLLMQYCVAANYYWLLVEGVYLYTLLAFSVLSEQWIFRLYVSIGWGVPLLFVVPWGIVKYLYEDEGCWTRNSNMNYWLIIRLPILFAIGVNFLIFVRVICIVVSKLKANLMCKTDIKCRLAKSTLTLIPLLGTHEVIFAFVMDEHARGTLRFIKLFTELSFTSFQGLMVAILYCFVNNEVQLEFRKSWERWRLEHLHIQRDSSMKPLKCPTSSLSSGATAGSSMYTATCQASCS

Turning to `CCCCCCCCCCCCCCCC(=O)N[C@@H](CCC(=O)NCCCC[C@H](NC(=O)[C@H](CC(=O)O)NC(=O)[C@H](CO)NC(=O)[C@@H](NC(=O)[C@H](Cc1ccccc1)NC(=O)[C@@H](NC(=O)CNC(=O)[C@H](CCC(N)=O)NC(=O)C(C)(C)NC(=O)[C@@H](N)Cc1c[nH]cn1)[C@@H](C)O)[C@@H](C)O)C(=O)N[C@@H](CO)C(=O)N[C@@H](CCCCN)C(=O)N[C@@H](Cc1ccc(O)cc1)C(=O)N[C@@H](CC(C)C)C(=O)N[C@@H](CC(=O)O)C(=O)N[C@@H](CCC(=O)O)C(=O)N[C@@H](CCCNC(=N)N)C(=O)N[C@@H](CCCNC(=N)N)C(=O)N[C@@H](C)C(=O)NC(C)(C)C(=O)N[C@@H](CCC(=O)O)C(=O)N[C@@H](Cc1ccccc1)C(=O)N[C@H](C(=O)N[C@@H](CCC(N)=O)C(=O)N[C@@H](Cc1c[nH]c2ccccc12)C(=O)N[C@@H](CC(C)C)C(=O)N[C@@H](CC(C)C)C(=O)N[C@@H](CC(=O)O)C(=O)N[C@H](C(N)=O)[C@@H](C)O)C(C)C)C(=O)O` [compound 31] (H-H[Aib]QGTFTSDK([γGlu-Palmitoyl])SKYLDERRA[Aib]EFVQWLLDT-NH2; N-terminus assumed), the EC50 at GIP receptor (setting [1]) was found to be 0.008 nM; on GIP receptor (Table 7, Example 13), 0.008 nM; at glucagon receptor (setting [2]) it was 0.008 nM; on glucagon receptor (EC50 (nM) at Glucagon Receptor, Table 7, Example 13), 0.008 nM; on GLP-1 receptor (setting [3]), 0.0044 nM.
Turning to `CCCCCCCCCCCCCCCC(=O)N[C@@H](CCC(=O)NCCCC[C@H](NC(=O)[C@H](CC(=O)O)NC(=O)[C@H](CO)NC(=O)[C@@H](NC(=O)[C@H](Cc1ccccc1)NC(=O)[C@@H](NC(=O)CNC(=O)[C@H](CCC(N)=O)NC(=O)C(C)(C)NC(=O)[C@@H](N)Cc1cnc[nH]1)[C@@H](C)O)[C@@H](C)O)C(=O)N[C@@H](CO)C(=O)N[C@@H](CCCCN)C(=O)N[C@@H](Cc1ccc(O)cc1)C(=O)N[C@@H](CC(C)C)C(=O)N[C@@H](CC(=O)O)C(=O)N[C@@H](CCC(=O)O)C(=O)N[C@@H](CCCNC(=N)N)C(=O)N[C@@H](C)C(=O)N[C@@H](C)C(=O)N[C@@H](CCC(N)=O)C(=O)N[C@@H](CC(=O)O)C(=O)N[C@@H](Cc1ccccc1)C(=O)N[C@H](C(=O)N[C@@H](CCC(N)=O)C(=O)N[C@@H](Cc1c[nH]c2ccccc12)C(=O)N[C@@H](CC(C)C)C(=O)N[C@@H](CC(C)C)C(=O)N[C@@H](CC(=O)O)C(=O)NCC(=O)N[C@@H](CCCNC(=N)N)C(=O)NCC(N)=O)C(C)C)C(=O)O` [compound 29], the EC50 on glucagon receptor (setting [2]) was determined as 0.007 nM; at GLP-1 receptor (setting [3]), 0.003 nM.
With “H[Aib]QGTFTSDYSKYLDERAAQDFVQWLLDAGPSSGAPPPSK([γGlu-γGlu-Palmitoyl])G-NH2 [SEQ ID NO: 204]”, the EC50 on glucagon receptor (EC50 (nM) at glucagon receptor, Table 16, Example 24) stood at 0.003 nM; at GLP-1 receptor (EC50 (nM) at GLP-1 receptor, Table 16, Example 24) it was 0.001 nM.
For the compound `CCCCCCCCCCCCCCCC(=O)N[C@@H](CCC(=O)NCCCC[C@H](NC(=O)[C@H](CC(=O)O)NC(=O)[C@H](CO)NC(=O)[C@@H](NC(=O)[C@H](Cc1ccccc1)NC(=O)[C@@H](NC(=O)CNC(=O)[C@H](CCC(N)=O)NC(=O)[C@@H](CO)NC(=O)[C@@H](N)Cc1c[nH]cn1)[C@@H](C)O)[C@@H](C)O)C(=O)N[C@@H](CO)C(=O)N[C@@H](CCCCN)C(=O)N[C@@H](Cc1ccc(O)cc1)C(=O)N[C@@H](CC(C)C)C(=O)N[C@@H](CC(=O)O)C(=O)N[C@@H](CCC(=O)O)C(=O)N[C@@H](CCCNC(=N)N)C(=O)N[C@@H](C)C(=O)N[C@@H](C)C(=O)N[C@@H](CCC(N)=O)C(=O)N[C@@H](CC(=O)O)C(=O)N[C@@H](Cc1ccccc1)C(=O)N[C@H](C(=O)N[C@@H](CCC(N)=O)C(=O)N[C@@H](Cc1c[nH]c2ccccc12)C(=O)N[C@@H](CC(C)C)C(=O)N[C@@H](CC(C)C)C(=O)N[C@@H](CC(=O)O)C(=O)NCC(=O)NCC(=O)N1CCC[C@H]1C(=O)N[C@@H](CO)C(=O)N[C@@H](CO)C(=O)NCC(=O)N[C@@H](C)C(=O)N1CCC[C@H]1C(=O)N1CCC[C@H]1C(=O)N1CCC[C@H]1C(=O)N[C@@H](CO)C(N)=O)C(C)C)C(=O)O` [compound 27], the EC50 on glucagon receptor (setting [2]) was determined as 0.003 nM; on GLP-1 receptor (setting [3]), 0.002 nM.
`CCCCCCCCCCCCCCCC(=O)N[C@@H](CCC(=O)N[C@@H](CCC(=O)NCCCC[C@H](NC(=O)[C@H](CC(=O)O)NC(=O)[C@H](CO)NC(=O)[C@@H](NC(=O)[C@H](Cc1ccccc1)NC(=O)[C@@H](NC(=O)CNC(=O)[C@H](CCC(N)=O)NC(=O)C(C)(C)NC(=O)[C@@H](N)Cc1c[nH]cn1)[C@@H](C)O)[C@@H](C)O)C(=O)N[C@@H](CO)C(=O)N[C@@H](CCCCN)C(=O)N[C@@H](Cc1ccc(O)cc1)C(=O)N[C@@H](CC(C)C)C(=O)N[C@@H](CC(=O)O)C(=O)NC(C)(C)C(=O)N[C@@H](CCCNC(=N)N)C(=O)N[C@@H](C)C(=O)N[C@@H](C)C(=O)N[C@@H](CCC(N)=O)C(=O)N[C@@H](CC(=O)O)C(=O)N[C@@H](Cc1ccccc1)C(=O)N[C@H](C(=O)N[C@@H](CCC(N)=O)C(=O)N[C@@H](Cc1c[nH]c2ccccc12)C(=O)N[C@@H](CC(C)C)C(=O)N[C@@H](CCSC)C(=O)N[C@@H](CC(=O)O)C(=O)NCC(=O)NCC(=O)N1CCC[C@H]1C(=O)N[C@@H](CO)C(=O)N[C@@H](CO)C(=O)NCC(=O)N[C@@H](C)C(=O)N1CCC[C@H]1C(=O)N1CCC[C@H]1C(=O)N1CCC[C@H]1C(=O)N[C@@H](CO)C(N)=O)C(C)C)C(=O)O)C(=O)O` [compound 33] (H-H[Aib]QGTFTSDK([γGlu-γGlu-Palmitoyl])SKYLD[Aib]RAAQDFVQWLMDGGPSSGAPPPS-NH2): the figures for the EC50 at glucagon receptor (setting [2]) and at GLP-1 receptor (setting [3]) were 0.005 nM and 0.004 nM, respectively.
Consider `CCCCCCCCCCCCCCCC(=O)N[C@@H](CCC(=O)NCCCC[C@H](NC(=O)[C@H](CC(=O)O)NC(=O)[C@H](CO)NC(=O)[C@@H](NC(=O)[C@H](Cc1ccccc1)NC(=O)[C@@H](NC(=O)CNC(=O)[C@H](CCC(N)=O)NC(=O)[C@@H](CO)NC(=O)[C@@H](N)Cc1c[nH]cn1)[C@@H](C)O)[C@@H](C)O)C(=O)N[C@@H](CO)C(=O)N[C@@H](CCCCN)C(=O)N[C@@H](Cc1ccc(O)cc1)C(=O)N[C@@H](CC(C)C)C(=O)N[C@@H](CC(=O)O)C(=O)N[C@@H](CCC(=O)O)C(=O)N[C@@H](CCCNC(=N)N)C(=O)N[C@@H](CCCNC(=N)N)C(=O)N[C@@H](C)C(=O)NC(C)(C)C(=O)N[C@@H](CCC(=O)O)C(=O)N[C@@H](Cc1ccccc1)C(=O)N[C@H](C(=O)N[C@@H](CCC(N)=O)C(=O)N[C@@H](Cc1c[nH]c2ccccc12)C(=O)N[C@@H](CC(C)C)C(=O)N[C@@H](CC(C)C)C(=O)N[C@@H](CC(=O)O)C(=O)N[C@H](C(N)=O)[C@@H](C)O)C(C)C)C(=O)O` [compound 30] (H-H[dS]QGTFTSDK([γGlu-Palmitoyl])SKYLDERRA[Aib]EFVQWLLDT-NH2; N-terminus assumed), for which the figures for the EC50 on glucagon receptor (setting [2]) and on GLP-1 receptor (setting [3]) were 0.008 nM and 0.0031 nM, respectively.
For `CCCCCCCCCCCCCCCC(=O)N[C@@H](CCC(=O)NCCCC[C@H](NC(=O)[C@H](CC(=O)O)NC(=O)[C@H](CO)NC(=O)[C@@H](NC(=O)[C@H](Cc1ccccc1)NC(=O)[C@@H](NC(=O)CNC(=O)[C@H](CCC(N)=O)NC(=O)[C@@H](CO)NC(=O)C(C)(C)c1c[nH]cn1)[C@@H](C)O)[C@@H](C)O)C(=O)N[C@@H](CO)C(=O)N[C@@H](CCCCN)C(=O)N[C@@H](Cc1ccc(O)cc1)C(=O)N[C@@H](CC(C)C)C(=O)N[C@@H](CC(=O)O)C(=O)N[C@@H](CCC(=O)O)C(=O)N[C@@H](CCCNC(=N)N)C(=O)N[C@@H](C)C(=O)N[C@@H](C)C(=O)N[C@@H](CCC(N)=O)C(=O)N[C@@H](CC(=O)O)C(=O)N[C@@H](Cc1ccccc1)C(=O)N[C@H](C(=O)N[C@@H](CCC(N)=O)C(=O)N[C@@H](Cc1c[nH]c2ccccc12)C(=O)N[C@@H](CC(C)C)C(=O)N[C@@H](CC(C)C)C(=O)N[C@@H](CC(=O)O)C(=O)N[C@H](C(N)=O)[C@@H](C)O)C(C)C)C(=O)O` [compound 32], the EC50 at glucagon receptor (setting [1]) came out at 0.004 nM; at GLP-1 receptor it was 0.003 nM.
For the compound `CC[C@H](C)[C@H](NC(=O)[C@H](CO)NC(=O)[C@H](Cc1ccc(O)cc1)NC(=O)[C@H](CC(=O)O)NC(=O)[C@H](CO)NC(=O)[C@@H](NC(=O)[C@H](Cc1ccccc1)NC(=O)[C@@H](NC(=O)CNC(=O)[C@H](CCC(N)=O)NC(=O)C(C)(C)NC(=O)[C@@H](N)Cc1ccc(O)cc1)[C@@H](C)O)[C@@H](C)O)C(=O)N[C@@H](Cc1ccc(O)cc1)C(=O)N[C@@H](CC(C)C)C(=O)N[C@@H](CC(=O)O)C(=O)N[C@@H](CCCCN)C(=O)N[C@H]1CCC(=O)NCCCC[C@@H](C(=O)N[C@@H](Cc2ccccc2)C(=O)N[C@H](C(=O)N[C@@H](CC(N)=O)C(=O)N[C@@H](Cc2c[nH]c3ccccc23)C(=O)N[C@@H](CC(C)C)C(=O)N[C@@H](CC(C)C)C(=O)N[C@@H](C)C(=O)NCC(=O)NCC(=O)N2CCC[C@H]2C(=O)N[C@@H](CO)C(=O)N[C@@H](CO)C(=O)NCC(=O)N[C@@H](C)C(=O)N2CCC[C@H]2C(=O)N2CCC[C@H]2C(=O)N2CCC[C@H]2C(=O)N[C@@H](CO)C(=O)N[C@@H](CS)C(N)=O)C(C)C)NC(=O)C(C)(C)NC(=O)[C@H](C)NC(=O)[C@H](C)NC1=O` [compound 58] (H-Y[Aib]QGTFTSDYSIYLDKEAA[Aib]KFVNWLLAGGPSSGAPPPSC-NH2; lactam 17-21), the EC50 on GIP receptor (Table 6, Example 12) came to 0.005 nM; on GLP-1 receptor (EC50 (nM) at GLP-1 Receptor, Table 6, Example 12), 0.014 nM.
